Tests used:
[1] = target: RIPK1 kinase (Homo sapiens (Human), UniProt Q13546); assay: RIPK1 kinase inhibition (ADP-Glo method); type: biochemical; conditions: ATP and MBP substrate, 90 min, read-out: IC50, inhibitory activity against RIPK1 kinase
Source text: Test Example 2: Inhibitory Activities of Compounds of the Present Disclosure Against RIPK1 Kinase (ADP-Glo Method)
The ADP GLO method was used for detecting the inhibitory activities of the compounds of the present disclosure against RIPK1 kinase. The method is specifically as follows:
• 1) RIPK1 kinase reaction system (containing RIPK1 kinase, MBP, 5× reaction buffer, MnCl2 and DTT) (Promega, VA7592) • 2) ADP-Glo kinase detection kit (containing ADP-Glo reagent and kinase detection reagents) (Promega, V9101) • 3) ATP solution (10 mM) (Thermofisher PV3227) • 4) 96-well small-volume white plate (Cisbio, 66PL96100) • 5) PHERA star microplate reader (BMG labtech)
• a. Reaction buffer: a reaction buffer containing DTT at a final concentration of 50 μM and MnCl2 at a final concentration of 4 mM was prepared using 5× reaction buffer; • b. RIPK1 kinase solution: a RIPK1 kinase solution at a final concentration of 10 ng/μL was prepared using the reaction buffer; • c. […]
• a. […] The plate was read using the PHERA star microplate reader, and relative luminescence unit (RLU) values were recorded. • g. Plotting was performed using the Graphpad software, and the IC50 values of the compounds of the present disclosure were calculated.

[2] = system: HT29 cells; assay: Inhibition of necroptosis of HT29 cells (CTG method); type: cell-based; conditions: Homo sapiens, HT-29, TZA mixture (TNFα, Z-VAD-FMK, AT-406) 24 h, CellTiter-Glo, read-out: IC50, inhibitory effect on necroptosis of HT29 cells
Method: Test Example 1: Inhibitory Effects of Compounds of the Present Disclosure on Necroptosis of HT29 Cells
The CTG method was used for detecting the inhibitory effects of the compounds of the present disclosure on the necroptosis of HT29 cells. The specific procedures are as follows:
HT29 cells were purchased from American Type Culture Collection (ATCC, HTB-38) and cultured with a McCoy's 5A medium (10% FBS) in a 37° C. incubator with 5% carbon dioxide. The cell culture density was maintained at 2×10^4 to 8×10^4 cells/cm^2, and the cells were passaged 2-3 times a week.
• a. Test compounds were dissolved in DMSO to 2 mM. • b. The compounds were 3-fold diluted from an initial concentration of 2 mM to 10 gradient concentrations. • c. All concentrations of compounds were 100-fold diluted with the culture medium for later use.
• a. The cells were counted, and the cell density was adjusted to 1×10^5 cells/mL with a fresh culture medium. • b. The cells were seeded in a 96-well plate at 80 µL/well and cultured at 37° C. overnight. • c. […] After the culture plate was left to stand at room temperature for 0.5 h, a stable luminescence signal was obtained, and then the plate was read using a microplate reader. • g. The IC50 values of the compounds of the present disclosure were calculated by the Graphpad software.

[3] = Pharmacokinetic evaluation in beagles after intragastric administration; type: in vivo; conditions: both sexes, beagle, dog, plasma, po, 2 mg/kg
Method: Test Example 3: Pharmacokinetic Evaluation of Compound of the Present Disclosure in Dogs
Beagles were used as test animals. Plasma concentrations of the compound of Example 2 at different time points after intragastric administration of Example 2 compound to beagles were determined using an LC/MS/MS method. The pharmacokinetic performance of the compound of the present disclosure was studied in beagles and its pharmacokinetic profile was evaluated.
Eight beagles were provided by Jiangsu Johnbio Biotechnology Co., Ltd., with an equal number of males and females. The production license number was SCXK (Jiangsu) 2018-0005.
A certain amount of the compound of Example 2 was weighed out, and 5% DMSO+30% PG+30% PEG400+35% normal saline were added to prepare a 0.4 mg/mL clear solution.
The compound of Example 2 was administered at a dose of 2 mg/kg with a volume of 5 mL/kg.
The compound of Example 2 was intragastrically administered to the beagles. 0.5 mL of blood samples were collected from the forelimb vein 0 h before administration and 15 min, 30 min, 1.0 h, 2.0 h, 4.0 h, 6.0 h, 8.0 h, 11.0 h, and 24.0 h after administration. The blood samples were placed into EDTA-K2 anticoagulation test tubes and centrifuged at 10,000 rpm for 2 min (4° C.), and plasma was separated within 1 h and stored in a −80° C. refrigerator/dry ice before analysis. Two hours after administration, feeding was resumed.
After the administration of the compound of Example 2, the plasma concentrations of the compound of Example 2 in the beagles were determined: 50 μL of the beagle plasma at each time point after the administration was taken, and 25 μL of internal standard solution ([…] camptothecin) and 450 μL of acetonitrile were added, and the mixture was vortexed and centrifuged at 3700 rpm for 10 min. 0.5 μL of supernatant was collected for LC/MS/MS analysis.

Chain of RIPK1 kinase (Q13546 1-327): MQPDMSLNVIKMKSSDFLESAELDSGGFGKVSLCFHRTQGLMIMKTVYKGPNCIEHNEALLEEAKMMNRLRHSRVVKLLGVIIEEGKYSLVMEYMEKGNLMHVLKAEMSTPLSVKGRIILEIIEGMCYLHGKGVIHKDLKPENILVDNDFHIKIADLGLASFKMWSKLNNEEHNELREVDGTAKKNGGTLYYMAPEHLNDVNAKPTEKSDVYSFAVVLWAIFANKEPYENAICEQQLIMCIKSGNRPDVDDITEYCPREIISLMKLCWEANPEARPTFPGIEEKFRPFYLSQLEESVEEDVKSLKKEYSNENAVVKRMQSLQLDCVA

| Compound | IC50 [1] [nM] | IC50 [2] [nM] | Vd/F ([3]; read-out: Apparent volume of distribution Vz/F) [L/kg] | AUC(0-t) ([3]; read-out: Area under curve AUC0-t) [ng·h/mL] | CL/F ([3]; read-out: Clearance rate CL/F) [mL/min/kg] | half-life ([3]; read-out: Half-life T1/2 (converted)) [h] | Cmax ([3]; read-out: Plasma concentration Cmax) [ng/mL] | MRT ([3]; read-out: Residence time MRT) [h] |
| --- | --- | --- | --- | --- | --- | --- | --- | --- |
| Nc1nc2cc(-c3ccc4c(c3)C(=O)N(Cc3cc(OC(F)(F)F)ccc3F)CCO4)ccn2n1 [Example 1, 7-(2-Amino-[1,2,4]triazolo[1,5-a]pyridin-7-yl)-4-(2-fluoro-5-(trifluoromethoxy)benzyl)-3,4-dihydrobenzo[f][1,4]oxazepin-5(2H)-one] | 23 | 13.3 |  |  |  |  |  |  |
| Nc1nc2cc(-c3ccc4c(c3)C(=O)N(Cc3cc(OC(F)(F)F)ccc3F)CCC4)ccn2n1 [Example 2, 8-(2-Amino-[1,2,4]triazolo[1,5-a]pyridin-7-yl)-2-(2-fluoro-5-(trifluoromethoxy)benzyl)-2,3,4,5-tetrahydro-1H-benzo[c]azepin-1-one] | 2.7 | 1.5 | 0.49 | 51600 | 0.48 | 12.5 | 2940 | 19.4 |
